From US20150140002A1, “USE OF A PCSK9 INHIBITOR TO TREAT […]” (Sanofi, priority 2013, published 2015)
Values joined by “and” are separate entries in the source; they are usually repeats but may differ in a detail not shown here. Equal values may be shown once.

Assays:
anti-mAb316P antibodies = assay: Example 2: anti-mAb316P antibody (ADA) bridging immunoassay and neutralizing antibody assay; type: in vivo, human
Protocol: Other endpoints Anti-MAb316P Antibody Assessments: Anti-mAb316P antibodies included the antibody status (positive/negative) and antibody titers.
Sampling time: Serum samples for anti-mAb316P antibody determination were drawn periodically throughout the study. The first scheduled sample at randomization visit was obtained before IMP injection (predose).
Anti-mAb316P antibody samples were analyzed using a validated non-quantitative, titer-based bridging immunoassay. It involved an initial screen, a confirmation assay based on drug specificity, and a measurement of the titer of anti-MAb316P antibodies in the sample. The lower limit of detection was approximately 1.5 ng/mL.
Samples that were positive in the ADA assay were assessed for neutralizing antibodies using a validated, non-quantitative, competitive ligand binding assay. The lower limit of detection based on a monoclonal positive control neutralizing antibody is 390 ng/mL.

[1] = system: patients with hypercholesterolemia at moderate cardiovascular (CV) risk; assay: Example 2: Phase 3 monotherapy trial mAb316P versus ezetimibe, lipid parameters; type: in vivo, human; conditions: for Lp(a) adjusted mean (SE) % change from baseline to week 24 / TGs adjusted mean (SE) % change from baseline to week 24: combined estimate; for LS mean (SE) percent reductions in LDL-C from baseline to week 24 / LS mean (SE) LDL-C reductions from baseline to week 24: given as reduction; for LDL-C LS mean (SE) change from baseline (%): baseline to Week 24; for estimated proportions of patients with LDL-C reductions ≧50% at week 12 / proportions of patients with LDL-C reductions ≧50% at week 12: before up-titration; for reduction in Lp(a): current study, discussion; for reduction in LDL-C at 12 weeks: summary, mAb316P 75mg Q2W arm, monotherapy population; for time-course of LDL-C lowering: week 4 to week 24, on-treatment; for between-group LS mean (SE) difference in LDL-C: week 12
Text: Randomization was stratified according to DM status. […] Patients were followed for 8 weeks after the last visit of the Double Blind Treatment Period (DBTP).
Double-blind treatment period (DBTP)—A randomized, double-blind double dummy study treatment period of 24 weeks. The first injection during the double-blind period was done at the site on the day of randomization (Week 0 [D1]-V3) and as soon as possible after the call to IVRS/IWRS for randomization into the study. The subsequent injections were done by the patient (self-injection) or another designated person (such as spouse, relative, etc.) at a patient-preferred location (home, etc.).
The primary efficacy endpoint was the percent change in calculated LDL-C from baseline to week 24, which is defined as: 100×(calculated LDL-C value at Week 24−calculated LDL-C value at baseline)/calculated LDL-C value at baseline.
Total-C, HDL-C, TG, Apo B, Apo A-1, and Lp (a) were directly measured. LDL-C was calculated using the Friedewald formula at all visits (except Week −1 and Follow Up visit). If TG values exceeded 400 mg/dL (4.52 mmol/L) then the central lab reflexively measured (via the beta quantification method) the LDL-C rather than calculating it. Non-HDL-C was calculated by subtracting HDL-C from the total-C. Ratio Apo B/Apo A-1 was calculated.
The primary endpoint was assessed in the intent-to-treat (ITT) population, which included all randomized patients who had at least 1 calculated LDL-C value at baseline and at one of the planned time points from weeks 4 to 24.
Missing data were accounted for by means of a mixed effect model with repeated measures (MMRM) approach (Siddiqui et al., MMRM vs. LOCF: a comprehensive comparison based on simulation study and 25 NDA datasets”, J Biopharm Stat, vol. 19, pp. 227-246 (2009); National Research Council, “The Prevention and Treatment of Missing Data in Clinical Trials” Panel on Handling Missing Data in Clinical Trials. Committee on National Statistics, Division of Behavioral and Social Sciences and Education. 2010. Washington, D.C.: The National Academies Press; Andersen et al., “On the practical application of mixed effects models for repeated measures to clinical trial data”, Pharm Stat., vol. 12, pp. 7-16 (2013)). For the ITT analysis, all available measurements at planned time points from weeks 4 to 24 (meaning week 4, 8, 12, 16, and 24), whatever their status on or off-treatment, were used in the MMRM. One MMRM model was used for LDL-C to provide least-squares means estimates and comparison between treatment arms at weeks 24 and 12. Further details on the model are given below. For the on-treatment analysis, all available on-treatment measurements (i.e. up to 21 days after last injection/3 days after last capsule, whichever comes first) at planned time points from weeks 4 to 24 were used in the MMRM model. In the same way as for the ITT analysis, one model was used to provide estimates and comparison at week 24 and week 12 for the on-treatment analysis. Continuous key secondary endpoints other than Lp(a) and triglycerides were analyzed in a similar fashion as the primary endpoint and description of the statistical methodology for secondary endpoints and subgroup analysis is provided below.
Outputs from the model were the baseline-adjusted least-squares (LS) mean estimates at week 24 for both treatment groups with their corresponding standard error (SE). Appropriate contrast statement was used to test the difference between these estimates at the 2-sided 5% alpha level.
To analyze the key secondary endpoints, a hierarchical procedure was used to control type I error and handle multiplicity. Secondary efficacy endpoints were tested sequentially using the order given above, in the intent-to-treat population.

[2] = ITT, excluding post up-titration data from patients up-titrated having LDL-C <100 mg/dL
[3] = ITT, mAb316P 75 mg Q2W before up-titration, ezetimibe 10 mg daily
[4] = on-treatment analysis, mAb316P 75 mg Q2W

## O=C1[C@H](CC[C@H](O)c2ccc(F)cc2)[C@@H](c2ccc(O)cc2)N1c1ccc(F)cc1 [ezetimibe, reference compound]
anti-mAb316P antibodies; in vivo
  patients with treatment emergent anti-drug antibodies: not observed
[1]; ITT
  Apo A-1 LS mean (SE) % change from baseline to week 24: −0.6 (1.6) %
  Apo B LS mean (SE) % change from baseline to week 24: −11.0 (2.4) %
  HDL-C LS mean (SE) % change from baseline to week 24: 1.6 (1.9) %
  Non-HDL-C LS mean (SE) % change from baseline to week 24: −15.1 (2.9) %
  Total cholesterol LS mean (SE) % change from baseline to week 24: −10.9 (2.2) %
  Lp(a) adjusted mean (SE) % change from baseline to week 24: −12.3 (3.8) %
  TGs adjusted mean (SE) % change from baseline to week 24: −10.8 (4.3) %
  LS mean (SE) percent reductions in LDL-C from baseline to week 24: 16 (3) %
  LDL-C LS mean (SE) change from baseline (%): −15.6%
  estimated proportions of patients with LDL-C reductions ≧50% at week 12: 3%
[1]; [2]
  LDL-C LS mean (SE) Week 24 change from baseline (%): −15.6%
[1]; [3]
  LDL-C reduction at week 12: 20 (3) % and 20%
[1]; On-treatment
  Apo A-1 LS mean (SE) % change from baseline to week 24: −0.7 (1.6) %
  Apo B LS mean (SE) % change from baseline to week 24: −11.5 (1.9) %
  HDL-C LS mean (SE) % change from baseline to week 24: 1.7 (1.9) %
  Non-HDL-C LS mean (SE) % change from baseline to week 24: −16.6 (1.9) %
  Total cholesterol LS mean (SE) % change from baseline to week 24: −12.0 (1.6) %
  Lp(a) adjusted mean (SE) % change from baseline to week 24: −12.3 (4.0) %
  TGs adjusted mean (SE) % change from baseline to week 24: −12.7 (4.2) %
  LDL-C LS mean (SE) change from baseline (%): −17.2%
[1]; Week 4, ezetimibe arm (n = 51)
  LDL-C (on treatment), mean (SD): 109.9 (22.4) mg/dL
[1]; Week 12, ezetimibe arm (n = 51)
  LDL-C (on treatment), mean (SD): 109.8 (25.2) mg/dL
[1]; Week 24, ezetimibe arm (n = 51)
  LDL-C (on treatment), mean (SD): 113.4 (25.0) mg/dL
[1]; on-treatment analysis
  proportions of patients with LDL-C reductions ≧50% at week 12: 2%
  LS mean (SE) LDL-C reductions from baseline to week 24: 17 (2) %
[1]
  reduction in Lp(a): 12%
  reduction in LDL-C at 12 weeks: 20%
[1]; [4]
  LDL-C reduction at week 12: 20 (2) % and 20%

## mAb316P: human anti-PCSK9 antibody; heavy chain SEQ ID NO:5, light chain SEQ ID NO:9; HCVR SEQ ID NO:1, LCVR SEQ ID NO:6
anti-mAb316P antibodies; all anti-drug antibody-positive patients
  anti-drug antibody titers: ≤ 240
anti-mAb316P antibodies; in vivo
  neutralizing anti-drug antibody: no neutralizing anti-drug antibody
  patients with treatment emergent anti-drug antibodies: 6 (12%) patients (%)
[1]; ITT
  Apo A-1 LS mean (SE) % change from baseline to week 24: 4.7 (1.6) %
  Apo B LS mean (SE) % change from baseline to week 24: −36.7 (2.3) %
  HDL-C LS mean (SE) % change from baseline to week 24: 6.0 (1.9) %
  Non-HDL-C LS mean (SE) % change from baseline to week 24: −40.6 (2.8) %
  Total cholesterol LS mean (SE) % change from baseline to week 24: −29.6 (2.1) %
  Lp(a) adjusted mean (SE) % change from baseline to week 24: −16.7 (3.7) %
  TGs adjusted mean (SE) % change from baseline to week 24: −11.9 (4.2) %
  LS mean (SE) percent reductions in LDL-C from baseline to week 24: 47 (3) %
  LDL-C LS mean (SE) change from baseline (%): −47.2%
  estimated proportions of patients with LDL-C reductions ≧50% at week 12: 58%
  between-group LS mean (SE) difference in LDL-C: −28 (4) %
[1]; [2]
  LDL-C LS mean (SE) Week 24 change from baseline (%): −44.3%
[1]; [3]
  LDL-C reduction at week 12: 48 (3) % and 48%
[1]; On-treatment
  Apo A-1 LS mean (SE) % change from baseline to week 24: 5.3 (1.6) %
  Apo B LS mean (SE) % change from baseline to week 24: −40.8 (1.9) %
  HDL-C LS mean (SE) % change from baseline to week 24: 8.0 (1.9) %
  Non-HDL-C LS mean (SE) % change from baseline to week 24: −47.1 (1.9) %
  Total cholesterol LS mean (SE) % change from baseline to week 24: −34.2 (1.6) %
  Lp(a) adjusted mean (SE) % change from baseline to week 24: −17.7 (4.1) %
  TGs adjusted mean (SE) % change from baseline to week 24: −14.7 (4.4) %
  LDL-C LS mean (SE) change from baseline (%): −54.1%
[1]; Week 4, non-uptitrated at Week 12 (n = 32)
  LDL-C (on treatment), mean (SD): 59.8 (13.6) mg/dL
[1]; Week 4, uptitrated at Week 12 (n = 14)
  LDL-C (on treatment), mean (SD): 83.5 (23.6) mg/dL
[1]; Week 12, non-uptitrated at Week 12 (n = 32)
  LDL-C (on treatment), mean (SD): 58.8 (16.8) mg/dL
[1]; Week 12, uptitrated at Week 12 (n = 14)
  LDL-C (on treatment), mean (SD): 78.3 (22.8) mg/dL
[1]; Week 24, ITT, excluding post up-titration data from patients up-titrated having LDL-C <100 mg/dL
  LDL-C LS mean difference (SE) % MAb316P versus ezetimibe: −28.7%
[1]; Week 24, ITT, listed as MAb316P
  LDL-C LS mean difference (SE) % MAb316P versus ezetimibe: −31.6%
[1]; Week 24, non-uptitrated, 75 mg Q2W (n = 32)
  LDL-C (on treatment), mean (SD): 57.8 (16.2) mg/dL
[1]; Week 24, uptitrated to 150 mg Q2W at Week 12 (n = 14)
  LDL-C (on treatment), mean (SD): 74.8 (19.5) mg/dL
[1]; on-treatment analysis
  proportions of patients with LDL-C reductions ≧50% at week 12: 65%
  LS mean (SE) LDL-C reductions from baseline to week 24: 54 (2) %
  between-group LS mean (SE) difference in LDL-C: −33 (3) %
[1]
  reduction in Lp(a): 18%
  reduction in LDL-C at 12 weeks: ~50%
  time-course of LDL-C lowering: robust LDL-C reductions maintained from week 4 to end of the treatment period at week 24
[1]; of the 46 mAb316P-treated patients in PK analyses, 75 mg Q2W
  patients who achieved LDL-C<70 mg/dL at Week 8: 32 patients
[1]; [4]
  LDL-C reduction at week 12: 53 (2) % and 53%
[1]; listed as MAb316P
  time-course of LDL-C lowering: sustained LDL-lowering effect from weeks 4 to 24
[1]; week 24, ITT
  Apo A-1 LS mean difference (SE) % MAb316P versus ezetimibe: 5.3 (2.2) %
  Apo B LS mean difference (SE) % MAb316P versus ezetimibe: −25.8 (3.3) %
  HDL-C LS mean difference (SE) % MAb316P versus ezetimibe: 4.4 (2.7) %
  LDL-C LS mean difference (SE) % MAb316P versus ezetimibe: −32 (4) %
  Lp(a) mean difference (SE) % MAb316P versus ezetimibe: −4.4 (5.3) %
  Non-HDL-C LS mean difference (SE) % MAb316P versus ezetimibe: −25.5 (4.1) %
  TGs mean difference (SE) % MAb316P versus ezetimibe: −1.2 (5.9) %
  Total cholesterol LS mean difference (SE) % MAb316P versus ezetimibe: −18.7 (3.0) %
[1]; week 24, On-treatment
  Apo A-1 LS mean difference (SE) % MAb316P versus ezetimibe: 6.1 (2.3) %
  Apo B LS mean difference (SE) % MAb316P versus ezetimibe: −29.2 (2.6) %
  HDL-C LS mean difference (SE) % MAb316P versus ezetimibe: 6.2 (2.7) %
  LDL-C LS mean difference (SE) % MAb316P versus ezetimibe: −36.9%
  Lp(a) mean difference (SE) % MAb316P versus ezetimibe: −5.4 (5.7) %
  Non-HDL-C LS mean difference (SE) % MAb316P versus ezetimibe: −30.5 (2.7) %
  TGs mean difference (SE) % MAb316P versus ezetimibe: −1.9 (6.0) %
  Total cholesterol LS mean difference (SE) % MAb316P versus ezetimibe: −22.2 (2.3) %
